Experimental data taken from patent publication US11793772B2, “Pharmaceutical composition comprising THA as active ingredient for treating breast cancer” (KOREA UNITED PHARM. INC., priority 2016, dated 2023).

How the values were obtained:
[1] = tested on: HCC38 cells; assay: Cell proliferation inhibitory activity per human breast cancer cell line, HCC38; format: cell-based; settings: as treatment amount increased, FIG. 10C
Method: (§1) To measure cell proliferation, SKBR3, T47D, HCC1428, MDA-MD-453, MDA-MB-231, MDA-MB-468, HCC38, HCC70, and HCC1937 cells were plated in respective 96-well dishes (5×10^3 cells/well). For cell stabilization, these cells were incubated in a cell incubator at 36.5° C. for 24 hours, and then treated with a drug, and the number of live cells was measured using an IncuCyte ZOOM live cell analysis system (Essen Bioscience, Ann Arbor, Mich., USA) at intervals of 4 hours.

[2] = tested on: TAMR-MCF-7 cells; assay: Tamoxifen-resistant breast cancer cell xenograft mouse model; format: in vivo, BALB/c-nu mice
Method: In all experiments, 6-week-old female BALB/c-nu mice were raised for 1 week at the Research Center for Animal Experiments in the College of Pharmacy of the Seoul National University at a humidity of 55±5% and a temperature of 22±2° C. and under controlled ventilation conditions and adapted to the environment, and then used in the experiments according to randomized block design, and light/dark cycles were adjusted to 12 hours.
Animal experiments were carried out in accordance with the Experimental Animals Ethics Guidelines. TAMR-MCF-7 cells (5×10^6 cells) were transdermally injected into the left mammary gland of nude mice, and tumor sizes were measured using a caliper twice a week. Tumor volume was calculated by the following formula: Tumor volume=length×width^2. Five weeks after cell transplantation, the mice were euthanized using carbon dioxide gas and the tumors were extracted and weighed.
THA was intraperitoneally administered to a tamoxifen-resistant breast cancer cell-transplanted mouse model every day for 2 weeks at a dose of 6 mg/kg based on a dose known to be effective for bile secretion in the liver. Tumor sizes and weights were measured twice a week during the administration period, and after administration was completed, tumors were extracted, and then the extracted tumor tissues were weighed. PCNA, which is a cell proliferative index, and TUNEL, which is an apoptotic index, were evaluated in the tumor tissues by immunohistochemistry staining, and some tissues were pulverized to quantify cdc25c, which is a downstream signal of Plk1, as a Plk1 activity index, and an increase or decrease in cdc25c expression was confirmed by western blotting.
In addition, THA was administered to a tamoxifen-resistant breast cancer cell-transplanted mouse model at a dose of 10 mg/kg, 30 mg/kg, or 100 mg/kg using an oral zonde needle every day for 2 weeks.

[3] = tested on: HCC70 cells; assay: Cell proliferation inhibitory activity per human breast cancer cell line, HCC70; format: cell-based; settings: as treatment amount increased, FIG. 10C
Method: as §1

[4] = tested on: MDA-MD-453 cells; assay: Cell proliferation inhibitory activity per human breast cancer cell line, MDA-MD-453; format: cell-based; settings: as treatment amount increased, FIG. 10B
Method: as §1

[5] = tested on: TAMR-MCF-7 cells; assay: Real-time apoptosis analysis with caspase-3/7 fluorescent substrate; format: cell-based, human; settings: caspase-3/7 selective fluorescent substrate, FIG. 6
Method: To measure apoptosis, cells were plated in a 96-well dish (5×10^3 cells/well). The cells were pre-treated with the IncuCyte ZOOM™ 96-well Caspase-3/7 apoptosis assay reagent for 3 hours and treated with a drug, and then the degree of fluorescence expression was measured using an IncuCyte ZOOM™ live cell analysis system (Essen Bioscience, Ann Arbor, Mich., USA) at intervals of 4 hours.

[6] = tested on: TAMR-MCF-7 cells; assay: Real-time cell proliferation assay (IncuCyte ZOOM), TAMR-MCF-7; format: cell-based, human; settings: TAMR-MCF-7 tamoxifen-resistant breast cancer cells; FIG. 2, FIG. 3
Method: (§2) An MCF-7 cell line was sub-cultured in high glucose Dulbeccos Modified Eagle's Medium (DMEM) containing 10% fetal bovine serum, 50 U/ml of penicillin, and 50 μg/ml of streptomycin in an incubator supplied with 5% CO2 at 37° C. to be used for experiments. A TAMR-MCF-7 cell line was cultured in high glucose Dulbeccos Modified Eagle's Medium (DMEM) containing 10% charcoal-stripped fetal bovine serum, 3 μM 4-OH-tamoxifen (Sigma-Aldrich, Mo., USA), 50 U/ml of penicillin, and 50 μg/ml of streptomycin.
(§3) To measure cell proliferation, cells were plated in a 96-well dish (5×10^3 cells/well). After drug treatment, the number of live cells was measured using an IncuCyte ZOOM live cell analysis system (Essen Bioscience, Ann Arbor, Mich., USA) at intervals of 4 hours.
(§4) Tamoxifen-resistant breast cancer cells (TAMR-MCF-7) and/or control breast cancer cells (MCF-7) were treated with 2,4,6-trihydroxyacetophenone (THA), and then it was confirmed whether Plk1 activity and cell proliferation were inhibited, using the method of Example 1.

[7] = tested on: MDA-MB-468 cells; assay: Cell proliferation inhibitory activity per human breast cancer cell line, MDA-MB-468; format: cell-based; settings: as treatment amount increased, FIG. 10B
Method: as §1

[8] = tested on: TAMR-MCF-7 cells; assay: Cell cycle analysis by flow cytometry; format: cell-based, human; settings: FIG. 4, FIG. 5
Method: To measure the cell cycle distribution, cells were plated in a 100 mm dish (5×10^5 cells/well). The cells were fixed with PBS at 4° C., refrigerated in 70% EtOH at 4° C., and cultured for 24 hours. After removing the 70% EtOH, the cells were stained with propidium iodide (PI)/Triton X-100/DNAse-free RNAse A at 37° C. for 15 minutes. 20,000 cells per experimental group were analyzed using an FACS-Calibur™ (BD Biosciences, CA, USA) machine.

[9] = tested on: human breast cancer cell line panel; assay: THA reactivity according to Plk1 expression differences per human breast cancer cell line; format: cell-based; settings: 11 breast cancer cell lines classified as low, medium, high Plk1 expression; FIGS. 11A and 11B
[10] = tested on: Polo-like kinase 1 (Plk1); assay: Western blotting and immunocytochemistry of Plk1 downstream signals (cdc25c, cyclin B1) in tamoxifen-resistant breast cancer cells; format: cell-based, human
Method: Sodium dodecyl sulfate-polyacrylamide gel electrophoresis (SDS-PAGE) was performed using a gel electrophoresis apparatus (Mighty Small SE250, Hoefer Scientific Instruments, San Francisco). A cell lysate fraction was diluted in a sample dilution buffer [63 mM Tris (pH 6.8), 10% glycerol, 2% SDS, 0.0013% bromophenol blue, and 5% β-mercaptoethanol], and then electrophoresis was performed thereon in an electrode buffer (15 g of Tris, 72 g of […], and 5 g of SDS included in a 1 L solution) using a 8% to 12% gel. The electrophoresed gel was used to transfer proteins to a nitrocellulose membrane at 190 mAmps for 70 minutes in a transfer buffer (25 mM Tris, 192 mM […], and 20% v/v methanol (pH 8.3)) using a transfer electrophoresis apparatus. The nitrocellulose membrane was reacted with a primary antibody, and then reacted with horseradish peroxidase-conjugated goat anti-rabbit IgG and horseradish peroxidase-conjugated goat anti-mouse IgG as secondary antibodies for 6 hours, followed by color development using an ECL detection system (ECL chemiluminescence system, Amersham, Gaithersberg, Mass.).
To measure fluorescence expression, cells were plated in a 6-well dish (5×10^5 cells/well). Fluorescence was conjugated to cdc25c and cyclin B1 antibodies using SiteClick™ Qdot antibody labeling kits (Thermo Scientific, IL, USA), and fluorescence-conjugated cdc25c and cyclin B1 antibodies were treated in a 6-well dish, and then expression was observed through a fluorescence microscope.
as §4

[11] = tested on: T47D cells; assay: Cell proliferation inhibitory activity per human breast cancer cell line, T47D; format: cell-based; settings: as treatment amount increased, FIG. 10A
Method: as §1

[12] = tested on: SKBR3 cells; assay: Cell proliferation inhibitory activity per human breast cancer cell line, SKBR3; format: cell-based; settings: as treatment amount increased, FIG. 10A
Method: as §1

[13] = tested on: HCC1428 cells; assay: Cell proliferation inhibitory activity per human breast cancer cell line, HCC1428; format: cell-based; settings: as treatment amount increased, FIG. 10A
Method: as §1

[14] = tested on: MDA-MB-231 cells; assay: Cell proliferation inhibitory activity per human breast cancer cell line, MDA-MB-231; format: cell-based; settings: as treatment amount increased, FIG. 10B
Method: as §1

[15] = tested on: HCC1937 cells; assay: Cell proliferation inhibitory activity per human breast cancer cell line, HCC1937; format: cell-based; settings: as treatment amount increased, FIG. 10C
Method: as §1

[16] = tested on: MCF-7 cells; assay: Real-time cell proliferation assay (IncuCyte ZOOM), MCF-7; format: cell-based, human; settings: MCF-7 normal (control) breast cancer cells; FIG. 2
Method: as §2, §3, §4

[17] = intraperitoneal 6 mg/kg, immunohistochemistry, FIGS. 7D and 7E
[18] = tamoxifen-resistant breast cancer cells, western blotting and immunocytochemistry, FIG. 1

SMILES	cell proliferation [1]	cell proliferation [3]	cell proliferation [4]	cell proliferation [7]	cell proliferation [11]	cell proliferation [12]	cell proliferation [13]	cell proliferation [14]	cell proliferation [15]	further results
CC(=O)c1c(O)cc(O)cc1O [THA, 2,4,6-trihydroxyacetophenone]	cell proliferation was inhibited	cell proliferation was inhibited	cell proliferation was inhibited	cell proliferation was inhibited	cell proliferation was inhibited	cell proliferation was inhibited	cell proliferation was inhibited	cell proliferation was inhibited	cell proliferation was inhibited	tumor size ([2]; intraperitoneal 6 mg/kg every day for 2 weeks, compared to control, FIG. 7A): significantly reduced; tumor weight ([2]; intraperitoneal 6 mg/kg every day for 2 weeks, compared to control, FIG. 7C): significantly reduced; body weight of each mouse ([2]; intraperitoneal 6 mg/kg every day for 2 weeks, FIG. 7B): maintained at a similar level; PCNA, cell proliferative index, in tumor tissue [2, 17]: reduced; TUNEL, apoptotic index, in tumor tissue [2, 17]: significantly increased; cdc25c expression in tumor tissue (Plk1 activity index) ([2]; intraperitoneal 6 mg/kg, western blotting, FIG. 7F): significantly inhibited; tumor size ([2]; oral 10 mg/kg, 30 mg/kg, or 100 mg/kg every day for 2 weeks, compared to control, FIG. 7G): significantly reduced; body weight of each mouse ([2]; oral 10 mg/kg, 30 mg/kg, or 100 mg/kg every day for 2 weeks, FIG. 7I): maintained at a similar level; apoptotic index [5]: significantly increased; inhibition of cell proliferation [6]: more strongly inhibited cell proliferation; cell cycle inhibition [8]: S phase arrest; selectivity according to Plk1 expression (correlation between Plk1 expression and IC50 of each cell line) [9]: selectively acts on breast cancer cells with high Plk1 expression; Plk1 inhibitory effect ([10]; concluded from cdc25c decrease and cyclin B1 increase): had a Plk1 inhibitory effect; compensatory cyclin B1 expression [10, 18]: increased compensatory cyclin B1 expression; expression of cdc25c, downstream signal of Plk1 [10, 18]: reduced the expression of cdc25c; inhibition of cell proliferation [16]: inhibited cell proliferation
CC[C@@H]1C(=O)N(C)c2cnc(Nc3ccc(C(=O)NC4CCN(C)CC4)cc3OC)nc2N1C1CCCC1 [BI-2536, reference compound]	cell proliferation was inhibited	cell proliferation was inhibited	cell proliferation was inhibited	cell proliferation was inhibited	cell proliferation was inhibited	cell proliferation was inhibited	cell proliferation was inhibited	cell proliferation was inhibited	cell proliferation was inhibited	
